In patent US4808580A, “Naphtho[1,2-b][1,4]thiazepin-4(5H)-ones and use thereof in treatment of ischemia and blood pressure lowering” (Hoffmann-La Roche Inc., priority 1987, dated 1989):
Counter-ions that a name gives are not always drawn.

System: Guinea Pig Ileum
Experiment: Guinea pig ileum assay - tonic contraction (K+-induced contraction of longitudinal muscle; calcium channel blocking activity)
Assay type: cell-based
Conditions: Cavia porcellus
Description: GUINEA PIG ILEUM ASSAY--TONIC CONTRACTION
Male guinea-pigs weighing from 300-400 grams were stunned and bled. The abdomen was opened and 10-15 cm of terminal ileum was carefully removed and cleaned and placed in Tyrode's Solution of the following composition: NaCl (8 g/l), KCl (0.2 g/l), MgCl2 (0.2 g/l.), CaCl2 (0.2 g/l), NaH2 PO4 (0.05 g/l), NaHCO3 (1.0 g/l) and Glucose (1 g/l). The solution was maintained at 37° C. and gassed with 95% O2 and 5% CO2. Portions of the ileum were placed over a glass rod, a shallow incision was made the length of the mesenteric attachment just severing the outer-longitudinal muscle layer. The longitudinal muscle was separated from the underlying circular muscle by gentle dissection (Rang, H. P. Annals of N.Y. Academy of Science Vol. 144, page 756, (1964)). The tissue was fixed at one end to a tissue holder, the other end was connected by a thread to a force transducer and suspended in a muscle bath containing Tyrode's Solution maintained at 37° C. and gassed with 95% O2 and 5% CO2. An initial tension of 500 mg was applied and the tissue allowed to equilibrate for 60 minutes prior to the start of the study. During this period the tissue was washed every 16 minutes. Each preparation, at 16 minute intervals, was challenged with KCl sufficient to yield a bath K^+ concentration of 80 mMK for 2 minutes, then washed with fresh solution. The 16 minute interval between K^+ challenges was maintained throughout the study. Upon stabilization of the responses to the K^+ challenge the test compound (potential calcium entry antagonist) was introduced into the bath 2 minutes prior to and during the 2 minute exposure to K^+ after which the bath was cleared and washed with fresh solution. Logarithmically increasing doses (up to 10^-4 M) of the potential antagonist were administered as the study progressed.
The measure of compound's ability to inhibit the tonic contraction of muscle is a measure of its activity as a calcium channel blocking agent.

| IC50 [nM] | SMILES |
| --- | --- |
| 390 | COc1ccc([C@@H]2Sc3ccc4ccccc4c3N(CCN(C)C)C(=O)[C@@H]2OC(C)=O)cc1 [D, cis-(+)-3-(acetyloxy)-2,3-dihydro-5-[2-(dimethylamino)ethyl]-2-(4-methoxyphenyl)naphtho[2,1-b][1,4]thiazepin-4(5H)-one (E)-2-butendioate] |
| 400 | COc1ccc([C@@H]2Sc3ccc4ccccc4c3N(CCN(C)C)C(=O)[C@@H]2O)cc1 (relative stereo) [A, cis-rac-2,3-dihydro-3-hydroxy-5-[2-(dimethylamino)ethyl]-2-(4-methoxyphenyl)naphtho[2,1-b][1,4]thiazepin-4(5H)-one hydrochloride] |
| 450 | COc1ccc([C@@H]2Sc3ccc4ccccc4c3N(CCN(C)C)C(=O)[C@@H]2OC(C)=O)cc1 (relative stereo) [B, cis-rac-3-(acetyloxy)-2,3-dihydro-5-[2-(dimethylamino)ethyl]-2-(4-methoxyphenyl)naphtho[2,1-b][1,4]thiazepin-4(5H)-one (E)-2-butendioate] |
| 230 | COc1ccc([C@@H]2Sc3ccc4ccccc4c3N(CCN(C)C)C(=O)[C@@H]2O)cc1 [C, cis-(+)-2,3-dihydro-3-hydroxy-5-[2-(dimethylamino)ethyl]-2-(4-methoxyphenyl)naphtho[2,1-b][1,4]thiazepin-4(5H)-one hydrochloride semihydrate] |
